Experimental data reported in patent publication US20260374782A1, “NEW COMPOUNDS, PROCESSES FOR PREPARING THE SAME AND THEIR USE AS DRUGS” (B&A ONCOMEDICAL, priority 2022, published 2026).
Read-outs that look alike come from different tables or passages of the source.

Target: T1, NKCC1 (Homo sapiens, UniProt P55011)
T1 construct: endogenous in cells; host or cells: native HEK293 cells
T1 sequence (P55011 1-1212): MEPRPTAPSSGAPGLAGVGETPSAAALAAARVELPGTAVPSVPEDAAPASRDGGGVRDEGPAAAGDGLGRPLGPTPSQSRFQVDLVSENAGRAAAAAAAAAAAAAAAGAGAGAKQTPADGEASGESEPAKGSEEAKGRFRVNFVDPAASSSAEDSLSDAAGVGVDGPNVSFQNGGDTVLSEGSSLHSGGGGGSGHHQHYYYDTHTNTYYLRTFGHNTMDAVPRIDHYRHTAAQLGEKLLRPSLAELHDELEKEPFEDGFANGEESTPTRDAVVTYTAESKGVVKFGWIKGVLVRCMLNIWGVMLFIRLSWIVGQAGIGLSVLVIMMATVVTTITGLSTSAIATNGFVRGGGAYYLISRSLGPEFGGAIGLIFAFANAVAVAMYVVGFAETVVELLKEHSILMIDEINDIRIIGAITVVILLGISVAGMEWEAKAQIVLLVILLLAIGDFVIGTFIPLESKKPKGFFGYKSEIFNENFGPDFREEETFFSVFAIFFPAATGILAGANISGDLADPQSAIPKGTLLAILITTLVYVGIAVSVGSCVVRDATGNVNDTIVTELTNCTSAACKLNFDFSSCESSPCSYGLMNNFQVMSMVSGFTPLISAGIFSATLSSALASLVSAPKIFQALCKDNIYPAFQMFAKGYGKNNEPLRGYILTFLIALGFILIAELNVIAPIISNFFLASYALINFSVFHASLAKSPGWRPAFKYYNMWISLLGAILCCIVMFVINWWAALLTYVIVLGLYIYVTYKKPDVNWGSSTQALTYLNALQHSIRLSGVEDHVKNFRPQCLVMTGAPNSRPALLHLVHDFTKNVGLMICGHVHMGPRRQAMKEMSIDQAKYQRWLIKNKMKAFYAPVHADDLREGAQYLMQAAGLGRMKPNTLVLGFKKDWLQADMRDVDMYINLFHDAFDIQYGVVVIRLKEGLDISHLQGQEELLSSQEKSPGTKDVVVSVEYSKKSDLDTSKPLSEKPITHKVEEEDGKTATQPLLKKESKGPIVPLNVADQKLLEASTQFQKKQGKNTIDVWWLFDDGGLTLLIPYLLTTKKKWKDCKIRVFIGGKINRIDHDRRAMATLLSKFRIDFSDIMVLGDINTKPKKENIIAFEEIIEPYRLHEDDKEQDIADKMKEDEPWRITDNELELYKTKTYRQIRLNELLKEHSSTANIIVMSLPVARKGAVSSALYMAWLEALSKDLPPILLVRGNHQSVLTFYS
Assay: NKCC1-mediated K+ influx (83Rb tracer uptake) in native HEK293 cells, hypertonic saline, 100 μM ouabain
Format: cell-based
Description: The compounds of the invention have been tested for evaluating their potency in inhibiting the NKCC1 channel. The test used is a cellular assay expressing the NKCC1 channel: HEK293 cells are human cells derived from embryonic kidney. The inhibitory activity of the compounds has been evaluated in measuring the modification of the potassium flux at 2 concentrations, as described hereafter in the biological protocol.
HEK293 cells are human cells derived from embryonic kidney. They express at their plasma membranes proteins that transport potassium (K^+). Among these proteins is the Na—K-2Cl cotransporter or NKCC1. This transporter contributes to 40-50% of K^+ influx into the cells. The remaining of K^+ transport is mediated by the Na^+/K^+-ATPase (also known as Na^+ pump or Na^+/K^+ pump), which also contributes some 40-50% of the influx basal flux of 5-10%, which is mainly due to K^+ channels (FIG. 1A). Thus, the HEK293 cell in culture is an ideal model to study the function of NKCC1 and test compounds that inhibits its transport.
The assay to measure NKCC1 function was optimized to obtain the next signal to noise ratio: • a. A slightly hypertonic saline was used to stimulate NKCC1 function. […] By consistent use of this simple manipulation, the NKCC1 signal was enhanced. • b. Ouabain, an inhibitor of the Na^+/K^+ pump, was used at 100 μM. […] A radioactive isotope was used to trace the inward movement of K^+ into the cell (influx). This allowed for highly precise measurements of K^+ influx. Because radioactive isotopes of K^+ had very short half-lives, radioactive isotopes of Rb^+ were used. Rubidium was a monovalent cation which was readily transporter at the K^+ binding site by many transporters and channels. Rb^+ was a congener of K^+, being transported undistinguishably from K^+. ^83Rb (half-life of 83 days) was used since ^86Rb (half-life of 19.6 days) is no longer commercially available. The ^83Rb isotope was used as a tracer, i.e. at a very low amounts to trace the movement of K^+.
K^+ influx measured in native HEK293 was in the range of 7000-9000 pmoles K^+ per mg protein per min. In the presence of 20 μM Ref 1, the flux was reduced to 600-900 pmoles K^+ per mg protein per min. Thus, there was a very solid dynamic range. In each experiment, the flux without Ref 1 was set at 1000 (equivalent to 100.0%) and the flux with 20 μM bumetanide was set at 0 (equivalent to 0%).
For the flux experiments, 35-mm culture dishes were coated with 0.1 mg/mL poly-L-lysine and placed in large 20×20 [square] dishes. For convenience, the poly-L-lysine was placed in the dishes the day before the experiment. Before plating the cells, the poly-L-lysine was aspirated, and each dish washed twice with 1 mL sterile water. Cells from 3 confluent 10-cm dishes were detached with trypsin and resuspended into 49 mL complete medium. Cells (2 mL/35-mm dish) were plated in 24 dishes and allowed to attach for at least 2 hours prior to the flux. This setup allowed the measurement of 8 conditions in triplicates. For the flux, culture medium was aspirated and replaced with 1 mL saline for a preincubation period of 15 min. The saline was aspirated and replaced with 1 mL identical saline containing 0.25 μCi/mL 83Rb for 15 min. Following the uptake period, the radioactive solution was aspirated, and the cells washed 3 times with ice-cold saline. Cells were then lyzed with 500 μl 0.25N NaOH for 1 hour, neutralized with 250 μL glacial acetic acid and 300 μL and 30 μL aliquots were used for μ-scintillation counting and protein assays, respectively. Two 5 μL of each flux solution was used to determine cpm and relate those cpm to nmoles K^+. Potassium influx was expressed in nmoles K^+ per mg protein per min. Note that within an experiment, groups of 3 dishes were separated 2 min apart for easy handling. Also note that since all dishes were plated with a homogeneous cell suspension, and all dishes were identical, the protein content was measured from a subset of dishes. […]

[1] = HEK293, no drug = 1000, 20 μM bumetanide = 0, read-out: NKCC1 mediated flux inhibition at 20 μM (%)
[2] = HEK293, no drug = 1000, 20 μM bumetanide = 0, read-out: NKCC1 mediated flux inhibition at 2 μM (%)

SMILES	inhibition at 20 µM [1] [%]	inhibition at 2 µM (native HEK293, read-out: Percent inhibition of drugs on NKCC1, 2 uM) [%]	inhibition at 20 µM (native HEK293, read-out: Percent inhibition of drugs on NKCC1, 20 uM) [%]	inhibition at 2 µM [2] [%]
CCCCNc1cc(C(=O)NCCOC)cc(S(=N)(=O)Nc2ccccc2)c1Oc1ccccc1 (centres unmarked) [Compound 109, 3-(anilinosulfonimidoyl)-5-(butylamino)-N-(2-methoxyethyl)-4-phenoxy-benzamide]	10 to 30	–	–	–
NS(=O)(=O)c1cc(C(=O)O)c(NCc2ccco2)cc1Cl [Ref 2, furosemide, reference compound]	–	32	77	–
CCCCNc1cc(C(=O)NCCOC)cc(S(=N)(=O)NCc2cccc(Cl)c2)c1Oc1ccccc1 (centres unmarked) [Compound 118, 3-(butylamino)-5-[[(3-chlorophenyl)methylamino]sulfonimidoyl]-N-(2-methoxyethyl)-4-phenoxy-benzamide]	10 to 30	–	–	10 to 30
CCCCNc1cc(C(=O)OC)cc(S(=N)(=O)NCCOC)c1Oc1ccccc1 (centres unmarked) [Compound 9, methyl 3-(butylamino)-5-[(2-methoxyethylamino)sulfonimidoyl]-4-phenoxy-benzoate]	10 to 30	–	–	–
CCCCNc1cc(C(=O)NOC)cc(S(=N)(=O)N2Cc3ccccc3C2)c1Oc1ccccc1 (centres unmarked) [Compound 113, 3-(butylamino)-5-(isoindolin-2-ylsulfonimidoyl)-N-methoxy-4-phenoxy-benzamide]	10 to 30	–	–	30 to 50
CCCCNc1cc(C(=O)OC)cc(S(=N)(=O)NCc2cncnc2)c1Oc1ccccc1 (centres unmarked) [Compound 15, methyl 3-(butylamino)-4-phenoxy-5-[(pyrimidin-5-ylmethylamino)sulfonimidoyl]benzoate]	30 to 50	–	–	30 to 50
CCCCNc1cc(C(=O)NC2CC2)cc(S(=N)(=O)Nc2ccccc2)c1Oc1ccccc1 (centres unmarked) [Compound 106, 3-(anilinosulfonimidoyl)-5-(butylamino)-N-cyclopropyl-4-phenoxy-benzamide]	–	–	–	30 to 50
CCCCNc1cc(C(=O)OC)cc(S(=N)(=O)NCC2CCCCC2)c1Oc1ccccc1 (centres unmarked) [Compound 12, methyl 3-(butylamino)-5-[(cyclohexylmethylamino)sulfonimidoyl]-4-phenoxy-benzoate]	30 to 50	–	–	10 to 30
CCCCNc1cc(C(=O)NCC(F)(F)F)cc(S(=N)(=O)NCc2cccc(Cl)c2)c1Oc1ccccc1 (centres unmarked) [Compound 119, 3-(butylamino)-5-[[(3-chlorophenyl)methylamino]sulfonimidoyl]-4-phenoxy-N-(2,2,2-trifluoroethyl)benzamide]	10 to 30	–	–	10 to 30
CCCCNc1cc(C(=O)OC)cc(S(=O)(=O)Nc2ccccc2)c1Oc1ccccc1 [Compound 124, methyl 3-(butylamino)-4-phenoxy-5-(phenylsulfamoyl)benzoate]	30 to 50	–	–	30 to 50
CCCCNc1cc(C(=O)OC)cc(S(=N)(=O)NC2CN3CCC2CC3)c1Oc1ccccc1 (centres unmarked) [Compound 48, methyl 3-(butylamino)-4-phenoxy-5-[(quinuclidin-3-ylamino)sulfonimidoyl]benzoate]	50 to 75	–	–	30 to 50
CCCCNc1cc(C(=O)OC)cc(S(=N)(=O)Nc2nccs2)c1Oc1ccccc1 (centres unmarked) [Compound 43, methyl 3-(butylamino)-4-phenoxy-5-[(thiazol-2-ylamino)sulfonimidoyl]benzoate]	10 to 30	–	–	30 to 50

Second part, the compound after the results:

inhibition at 20 µM [1] [%]	inhibition at 2 µM (native HEK293, read-out: Percent inhibition of drugs on NKCC1, 2 uM) [%]	inhibition at 20 µM (native HEK293, read-out: Percent inhibition of drugs on NKCC1, 20 uM) [%]	inhibition at 2 µM [2] [%]	SMILES
≥ 75	–	–	30 to 50	CCCCNc1cc(C(=O)O)cc(S(=N)(=O)Nc2cncnc2)c1Oc1ccccc1 (centres unmarked) [Compound 80, 3-(butylamino)-4-phenoxy-5-[(pyrimidin-5-ylamino)sulfonimidoyl]benzoic acid]
50 to 75	–	–	–	CCCCNc1cc(C(=O)O)cc(S(=N)(=O)NCCOC)c1Oc1ccccc1 (centres unmarked) [Compound 59, 3-(butylamino)-5-[(2-methoxyethylamino)sulfonimidoyl]-4-phenoxy-benzoic acid]
50 to 75	–	–	10 to 30	CCCCNc1cc(C(=O)O)cc(S(C)(=N)=O)c1Oc1ccccc1 (centres unmarked) [Compound 130, 3-(butylamino)-5-(methylsulfonimidoyl)-4-phenoxy-benzoic acid]
≥ 75	–	–	30 to 50	CCCCNc1cc(C(=O)O)cc(S(=N)(=O)Nc2nccs2)c1Oc1ccccc1 (centres unmarked) [Compound 90, 3-(butylamino)-4-phenoxy-5-[(thiazol-2-ylamino)sulfonimidoyl]benzoic acid]
30 to 50	–	–	30 to 50	CCCCNc1cc(C(=O)O)cc(S(=N)(=O)NC23CC(C2)C3)c1Oc1ccccc1 (centres unmarked) [Compound 95, 3-[(1-bicyclo[1.1.1]pentanylamino)sulfonimidoyl]-5-(butylamino)-4-phenoxy-benzoic acid]
10 to 30	–	–	–	CCCCNc1cc(C(=O)OC)cc(S(=N)(=O)NC2CC2)c1Oc1ccccc1 (centres unmarked) [Compound 10, methyl 3-(butylamino)-5-[(cyclopropylamino)sulfonimidoyl]-4-phenoxy-benzoate]
≥ 75	–	–	50 to 75	CCCCNc1cc(C(=O)O)cc(S(=N)(=O)NCCCC)c1Oc1ccccc1 (centres unmarked) [Compound 94, 3-(butylamino)-5-(butylaminosulfonimidoyl)-4-phenoxy-benzoic acid]
≥ 75	–	–	50 to 75	CCCCNc1cc(C(=O)O)cc(S(=N)(=O)Nc2cccnc2)c1Oc1ccccc1 (centres unmarked) [Compound 64, 3-(butylamino)-4-phenoxy-5-[(3-pyridylamino)sulfonimidoyl]benzoic acid]
